Read-outs that look alike come from different tables or passages of the source.
Legend:
Kunming mice = conditions: for Death rate: single i.p.
Description: (§2) Five grades of dosages for each sample according to the results of the preliminary test, each dosage being 0.8 larger than the previous one
(§3) During the experiment, each sample was added a small amount of Tween-80 to facilitate dissolution after the sample was weighed, and then 0.5% CMC-Na solution was gradually added to achieve the desired concentration. The experimental volume was 0.5 ml/20 g mouse.
(§4) Single injection via intraperitoneal (i.p.) to different groups mice.
(§5) Kunming mice were divided into different groups randomly according to their sex. The medicament was intraperitoneally administered to each group of mice according to the dosage setting. After the administration of the medicaments, mice were observed continuously for the first 2 h for any gross behavioral changes and deaths. Dead animals were dissected and examined for any possible organ damage. […] Conditions of animals died within two week were recorded. After two weeks, all survived animals were sacrificed and checked macroscopically for possible damage to the heart, liver, kidneys and so on. Viscera that had substantive pathological changes were pathologically examined.

PLA-801 = test: In vitro cytotoxicity, IC50 by MTT method, PLA-801; type: cell-based; conditions: PLA-801 cell strain; read-out: IC50 PLA-801
In short: (§1)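 Cells in RPMI1640 with 10% FBS at 37° C, 5% CO2 were seeded at 10^5/ml and exposed to a compound concentration gradient for 48 h, at least three replicates, solvent controls.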

in vivo = conditions: both, mouse, ip
Description: as §2, §3, §4, §5

Bel-7402 = test: In vitro cytotoxicity, IC50 by MTT method, Bel-7402; type: cell-based; conditions: Homo sapiens, Bel-7402; Bel7402 cell strain; read-out: IC50 Bel7402
In short: as §1

Lewis lung cancer = conditions: for Body weight of the animals, end, First time / Body weight of the animals, end, Second time / Body weight of the animals, beginning, First time / Inhibition rate, First time / Weight of the tumor X ± SD, First time / Body weight of the animals, beginning, Second time / Inhibition rate, Second time / Weight of the tumor X ± SD, Second time / Inhibition rate (%) Lewis cancer: Lewis lung cancer; for Body weight of the animals, end, First time / Body weight of the animals, end, Second time: ip × 10qd; for Inhibition rate (%) Lewis cancer: comparison table 43, in vivo;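 on all read-outs here: mice implanted subcutaneously in the axilla with Lewis lung tumor cells, treated starting the following day, killed roughly three weeks after implantation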
BGC-823 = test: In vitro cytotoxicity, IC50 by MTT method, BGC-823; type: cell-based; conditions: Homo sapiens, BGC-823; BGC823 cell strain; read-out: IC50 BGC823
In short: as §1

Hela = test: In vitro cytotoxicity, IC50 by MTT method, Hela; type: cell-based; conditions: Homo sapiens; Hela cell strain; read-out: IC50 Hela
In short: as §1

Lovo = test: In vitro cytotoxicity, IC50 by MTT method, Lovo; type: cell-based; conditions: Homo sapiens; Lovo cell strain; read-out: IC50 Lovo
In short: as §1

HepG2 = test: In vitro cytotoxicity, IC50 by MTT method, HepG2; type: cell-based, human; conditions: Homo sapiens; HepG2 cell strain; read-out: IC50 HepG2
In short: as §1

S180 sarcoma = conditions: S180 sarcoma; for Body weight of the animals, beginning, First time / Body weight of the animals, end, First time / Inhibition rate, First time / Weight of the tumor X ± SD, First time / Body weight of the animals, beginning, Second time / Body weight of the animals, end, Second time / Inhibition rate, Second time: ip × 10qd; for Inhibition rate (%) S180 sarcomata: comparison table 43, in vivo
CT-DNA = test: DNA thermal denaturation, determination of ΔTm; type: binding; conditions: 20 uM compound, Tm of CT-DNA alone 61° C.
Description: Experiments were carried out in PE buffer (1 mM Na2HPO4, 0.1 mM EDTA, pH 7.6) in a thermostatically controlled cell hold, and the quartz cuvette (1 cm path length) was heated by circulating water at a heating rate of 0.5° C./min from 25 to 95° C. Amsacrine and Doxorubicin Hydrochloride were used as standards. In all cases, the concentration of CT-DNA was 15 ug/ml. The ‘melting’ temperature Tm was taken as the mid-point of the hyperchromic transition.
ΔTm=Tm^drug-DNA complex−Tm^DNA alone
The ΔTm of each compound was calculated, Experiments were repeated three times, and an average value was calculated.

NIH3T3 = test: In vitro cytotoxicity, IC50 by MTT method, NIH3T3; type: cell-based; conditions: Mus musculus; NIH3T3 cell strain; read-out: IC50 NIH3T3
In short: as §1

[1] = 50% male 50% female mice, 240 mg/kg
[2] = 50% male 50% female mice, 300 mg/kg
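Wherever Death rate is given: acute toxicity in Kunming mice grouped by sex, one intraperitoneal dose at five graded levels in Tween-80 plus 0.5% CMC-Na, deaths monitored over two weeks.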
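Wherever LD50 is given: acute toxicity in Kunming mice grouped by sex, one intraperitoneal dose at five graded levels in Tween-80 plus 0.5% CMC-Na, deaths monitored over two weeks.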
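Wherever MTD is given: acute toxicity in Kunming mice grouped by sex, one intraperitoneal dose at five graded levels in Tween-80 plus 0.5% CMC-Na, deaths monitored over two weeks.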

CCOC(=O)c1cc2c3ccccc3n(Cc3ccccc3)c2cn1 [Compound 33, ethyl 9-benzyl-β-carboline-3-carboxylate]
Death rate (Kunming mice; [1]): 50
Death rate (Kunming mice; [2]): 90
Death rate (Kunming mice; female mice, 240 mg/kg): 60
Death rate (Kunming mice; female mice, 300 mg/kg): 100
Death rate (Kunming mice; male mice, 240 mg/kg): 40
Death rate (Kunming mice; male mice, 300 mg/kg): 80
LD50 (Kunming mice; mouse, in vivo, ip): 211 to 274 mg/kg
IC50 (PLA-801): 170 µM
LD50 at 2 weeks (in vivo; Kunming): 240 mg/kg
IC50 (Bel-7402): 340 µM
Body weight of the animals, end, First time (Lewis lung cancer; Dosage 50 (mg/ml)): 25.4 g
Body weight of the animals, end, Second time (Lewis lung cancer; Dosage 50 (mg/ml)): 24.9 g
Body weight of the animals, beginning, First time (Lewis lung cancer; Dosage 50, ip × 10qd): 20.3 g
Inhibition rate, First time (Lewis lung cancer; Dosage 50, ip × 10qd): 34.16%
Weight of the tumor X ± SD, First time (Lewis lung cancer; Dosage 50, ip × 10qd): 1.60 ± 0.09 g
Body weight of the animals, beginning, Second time (Lewis lung cancer; Dosage 50, ip × 10qd): 18.9 g
Inhibition rate, Second time (Lewis lung cancer; Dosage 50, ip × 10qd): 31.06%
Weight of the tumor X ± SD, Second time (Lewis lung cancer; Dosage 50, ip × 10qd): 2.02 ± 0.18 g
Body weight of the animals, end, First time (Lewis lung cancer; Dosage 100 (mg/ml)): 24.7 g
Body weight of the animals, end, Second time (Lewis lung cancer; Dosage 100 (mg/ml)): 24.5 g
Body weight of the animals, beginning, First time (Lewis lung cancer; Dosage 100, ip × 10qd): 19.9 g
Inhibition rate, First time (Lewis lung cancer; Dosage 100, ip × 10qd): 42.80%
Weight of the tumor X ± SD, First time (Lewis lung cancer; Dosage 100, ip × 10qd): 1.39 ± 0.15 g
Body weight of the animals, beginning, Second time (Lewis lung cancer; Dosage 100, ip × 10qd): 19.0 g
Inhibition rate, Second time (Lewis lung cancer; Dosage 100, ip × 10qd): 43.34%
Weight of the tumor X ± SD, Second time (Lewis lung cancer; Dosage 100, ip × 10qd): 1.66 ± 0.12 g
Inhibition rate (%) Lewis cancer (Lewis lung cancer): 43.3%
IC50 (BGC-823): 150 µM
IC50 (Hela): 10 µM
IC50 (Lovo): 120 µM
IC50 (HepG2): 80 µM
Body weight of the animals, beginning, First time (S180 sarcoma; Dosage 50 (mg/ml)): 19.4 g
Body weight of the animals, end, First time (S180 sarcoma; Dosage 50 (mg/ml)): 24.4 g
Inhibition rate, First time (S180 sarcoma; Dosage 50 (mg/ml)): 33.33%
Weight of the tumor X ± SD, First time (S180 sarcoma; Dosage 50 (mg/ml)): 1.78 ± 0.17 g
Body weight of the animals, beginning, Second time (S180 sarcoma; Dosage 50 (mg/ml)): 18.7 g
Body weight of the animals, end, Second time (S180 sarcoma; Dosage 50 (mg/ml)): 25.6 g
Inhibition rate, Second time (S180 sarcoma; Dosage 50 (mg/ml)): 32.22%
Weight of the tumor X ± SD, Second time (S180 sarcoma; Dosage 50, ip × 10qd): 1.83 ± 0.19 g
Body weight of the animals, beginning, First time (S180 sarcoma; Dosage 100 (mg/ml)): 19.4 g
Body weight of the animals, end, First time (S180 sarcoma; Dosage 100 (mg/ml)): 24.6 g
Inhibition rate, First time (S180 sarcoma; Dosage 100 (mg/ml)): 42.70%
Weight of the tumor X ± SD, First time (S180 sarcoma; Dosage 100 (mg/ml)): 1.53 ± 0.15 g
Body weight of the animals, beginning, Second time (S180 sarcoma; Dosage 100 (mg/ml)): 18.6 g
Body weight of the animals, end, Second time (S180 sarcoma; Dosage 100 (mg/ml)): 25.1 g
Inhibition rate, Second time (S180 sarcoma; Dosage 100 (mg/ml)): 40.00%
Weight of the tumor X ± SD, Second time (S180 sarcoma; Dosage 100, ip × 10qd): 1.62 ± 0.30 g
Inhibition rate (%) S180 sarcomata (S180 sarcoma): 42.11%
ΔTm (CT-DNA; CT-DNA 15 ug/ml, PE buffer pH 7.6): −1.2 °C
ΔTm (CT-DNA; CT-DNA thermal denaturation): −1.2 °C
IC50 (NIH3T3): 50 µM

CCOC(=O)Nc1cc2c3ccccc3n(Cc3ccccc3)c2cn1 [Compound 55, 3-[(ethoxycarbonyl)amino]-9-benzyl-β-carboline]
Death rate (Kunming mice; [1]): 0
Death rate (Kunming mice; [2]): 50
Death rate (Kunming mice; female mice, 240 mg/kg): 0
Death rate (Kunming mice; female mice, 300 mg/kg): 60
Death rate (Kunming mice; male mice, 240 mg/kg): 0
Death rate (Kunming mice; male mice, 300 mg/kg): 40
IC50 (PLA-801): 520 µM
MTD at 2 weeks (in vivo): 240 mg/kg
IC50 (Bel-7402): 2440 µM
Anti-tumor activity compared with harmine (compound 1) (Lewis lung cancer; Lewis lung cancer in mice, among 22 compounds tested): a little worse than or equivalent to that of harmines
Body weight of the animals, end, First time (Lewis lung cancer; Dosage 50 (mg/ml)): 23.8 g
Body weight of the animals, end, Second time (Lewis lung cancer; Dosage 50 (mg/ml)): 24.5 g
Body weight of the animals, beginning, First time (Lewis lung cancer; Dosage 50, ip × 10qd): 18.7 g
Inhibition rate, First time (Lewis lung cancer; Dosage 50, ip × 10qd): 21.91%
Weight of the tumor X ± SD, First time (Lewis lung cancer; Dosage 50, ip × 10qd): 1.96 ± 0.12 g
Body weight of the animals, beginning, Second time (Lewis lung cancer; Dosage 50, ip × 10qd): 19.6 g
Inhibition rate, Second time (Lewis lung cancer; Dosage 50, ip × 10qd): 24.58%
Weight of the tumor X ± SD, Second time (Lewis lung cancer; Dosage 50, ip × 10qd): 1.78 ± 0.19 g
Body weight of the animals, end, First time (Lewis lung cancer; Dosage 100 (mg/ml)): 23.5 g
Body weight of the animals, end, Second time (Lewis lung cancer; Dosage 100 (mg/ml)): 23.9 g
Body weight of the animals, beginning, First time (Lewis lung cancer; Dosage 100, ip × 10qd): 19.1 g
Inhibition rate, First time (Lewis lung cancer; Dosage 100, ip × 10qd): 29.88%
Weight of the tumor X ± SD, First time (Lewis lung cancer; Dosage 100, ip × 10qd): 1.76 ± 0.10 g
Body weight of the animals, beginning, Second time (Lewis lung cancer; Dosage 100, ip × 10qd): 19.7 g
Inhibition rate, Second time (Lewis lung cancer; Dosage 100, ip × 10qd): 30.93%
Weight of the tumor X ± SD, Second time (Lewis lung cancer; Dosage 100, ip × 10qd): 1.63 ± 0.18 g
Inhibition rate (%) Lewis cancer (Lewis lung cancer): 30.93%
IC50 (BGC-823): > 3000 µM
IC50 (Hela): > 3000 µM
IC50 (Lovo): 2130 µM
IC50 (HepG2): > 3000 µM
Body weight of the animals, beginning, First time (S180 sarcoma; Dosage 50 (mg/ml)): 19.8 g
Body weight of the animals, end, First time (S180 sarcoma; Dosage 50 (mg/ml)): 27.0 g
Inhibition rate, First time (S180 sarcoma; Dosage 50 (mg/ml)): 23.51%
Weight of the tumor X ± SD, First time (S180 sarcoma; Dosage 50 (mg/ml)): 2.18 ± 0.23 g
Body weight of the animals, beginning, Second time (S180 sarcoma; Dosage 50 (mg/ml)): 20.9 g
Body weight of the animals, end, Second time (S180 sarcoma; Dosage 50 (mg/ml)): 24.8 g
Inhibition rate, Second time (S180 sarcoma; Dosage 50 (mg/ml)): 20.00%
Weight of the tumor X ± SD, Second time (S180 sarcoma; Dosage 50, ip × 10qd): 2.28 ± 0.18 g
Body weight of the animals, beginning, First time (S180 sarcoma; Dosage 100 (mg/ml)): 19.4 g
Body weight of the animals, end, First time (S180 sarcoma; Dosage 100 (mg/ml)): 26.7 g
Inhibition rate, First time (S180 sarcoma; Dosage 100 (mg/ml)): 29.12%
Weight of the tumor X ± SD, First time (S180 sarcoma; Dosage 100 (mg/ml)): 2.02 ± 0.22 g
Body weight of the animals, beginning, Second time (S180 sarcoma; Dosage 100 (mg/ml)): 20.3 g
Body weight of the animals, end, Second time (S180 sarcoma; Dosage 100 (mg/ml)): 24.9 g
Inhibition rate, Second time (S180 sarcoma; Dosage 100 (mg/ml)): 28.07%
Weight of the tumor X ± SD, Second time (S180 sarcoma; Dosage 100, ip × 10qd): 2.05 ± 0.17 g
Inhibition rate (%) S180 sarcomata (S180 sarcoma): 29.12%
IC50 (NIH3T3): 1790 µM

— US20090227619A1, “Harmine derivatives, intermediates used in their preparations, preparation processes and use therefo” (priority 2003, published 2009)
